Laboratory results: US5789434A, “Derivatives of substituted 4-biarylbutyric acid as matrix metalloprotease inhibitors” (priority 1995, dated 1998)

Legend:
Femoral Lesion = assay: Inhibition of Cartilage Lesions in a Guinea Pig Model of Osteoarthritis; format: in vivo; conditions: 15 mg/kg oral gavage daily, 33 days, vs vehicle
Protocol: Pathol. 1987 24, 444-448. Seven of the invention compounds were dissolved at 15 mg/ml in a vehicle of 10 mg/ml Tween 80, 190 mg/ml PEG and 0.44 mg/ml ethanolamine. This concentrate was diluted 1:1 with water before dosing (final concentration 7.5 mg/ml). On the 5th day before surgery, each animal received either a test compound plus vehicle or vehicle only administered by oral gavage each day at 15 mg/kg (2 ml/kg) up to surgery and then for four weeks post surgery (total 33 days of dosing). At the beginning of dosing and twice weekly thereafter the animals were weighed and the dose of the respective compounds or vehicles were calculated and adjusted if necessary. At the conclusion of the study the animals were euthanized by CO2 asphyxiation and their stifles removed, partially dissected and placed in 10% neutral buffered formalin. The extent of lesion development on the femoral head was measured by computer assisted surface area analysis.

MMP-2 [1] = molecular target: T1, MMP-2 (Homo sapiens, UniProt P08253); assay: Automated MMP Profiling Assay, MMP-2 fluorogenic; format: biochemical; conditions: 96-well automated, P218; read-out: MMP-2 Fluorogenic IC50 (profiling)
T1 sequence (P08253 110-660): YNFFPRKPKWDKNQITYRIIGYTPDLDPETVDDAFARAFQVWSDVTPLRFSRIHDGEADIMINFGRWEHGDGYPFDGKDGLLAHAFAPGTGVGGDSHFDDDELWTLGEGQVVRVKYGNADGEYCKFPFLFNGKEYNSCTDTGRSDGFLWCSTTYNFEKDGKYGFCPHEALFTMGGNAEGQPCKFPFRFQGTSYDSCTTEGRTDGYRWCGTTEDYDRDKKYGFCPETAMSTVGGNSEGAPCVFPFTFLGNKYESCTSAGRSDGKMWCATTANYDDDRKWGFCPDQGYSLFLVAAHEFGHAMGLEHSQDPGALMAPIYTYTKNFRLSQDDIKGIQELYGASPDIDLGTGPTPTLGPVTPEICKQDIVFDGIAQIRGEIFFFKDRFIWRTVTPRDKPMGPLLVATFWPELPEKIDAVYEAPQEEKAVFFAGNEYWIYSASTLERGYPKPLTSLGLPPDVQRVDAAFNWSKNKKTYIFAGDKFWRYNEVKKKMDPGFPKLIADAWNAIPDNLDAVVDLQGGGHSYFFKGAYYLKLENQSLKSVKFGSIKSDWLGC

MMP-9 [2] = molecular target: T2, MMP-9 (Homo sapiens, UniProt P14780); assay: Automated MMP Profiling Assay, MMP-9 fluorogenic; format: biochemical; conditions: 96-well automated, P218
T2 construct: from tissue; host or cells: human polymorphonuclear leukocytes (PMN) from whole blood (New York Blood Center), PMA-stimulated supernatant

MMP-3 = molecular target: T3, MMP-3 (Homo sapiens, UniProt P08254); assay: Automated MMP Profiling Assay, MMP-3 fluorogenic; format: biochemical; conditions: 96-well automated, P218
T3 construct: Truncated Prostromelysin-257 was expressed in a soluble form in E.coli; made in house; host or cells: E. coli
Excerpt: This assay with each invention compound was run with the three enzymes MMP-3, MMP-9 and MMP-2 in parallel as adapted for a 96-well microtitre plate using a Hamilton A® workstation.

MMP-2 [3] = molecular target: T1, MMP-2; assay: Secondary P218 Quenched fluorescence Assay for MMP-2 Inhibition; format: biochemical; conditions: P218 substrate, 0.2 nM enzyme; x (n) = average of n determinations; read-out: MMP-2 Fluorogenic IC50
MMP-9 [4] = molecular target: T2, MMP-9; assay: Thiopeptilide MMP-9 Inhibition Assay; format: biochemical; conditions: pH 6.5; x (n) = average of n determinations; read-out: MMP-9: Thiopep. IC50
MMP = MMP inhibitory activity, comparison in words; format: biochemical
inflammation = conditions: R. G. Child et al. 1977; cited from earlier work
[5] = tested on: human ovarian carcinoma xenografts; conditions: mouse, in vivo; cited from earlier work
human colon tumor = conditions: intraperitoneally; cited from earlier work

T2 sequence (P14780 107-707 limits assumed): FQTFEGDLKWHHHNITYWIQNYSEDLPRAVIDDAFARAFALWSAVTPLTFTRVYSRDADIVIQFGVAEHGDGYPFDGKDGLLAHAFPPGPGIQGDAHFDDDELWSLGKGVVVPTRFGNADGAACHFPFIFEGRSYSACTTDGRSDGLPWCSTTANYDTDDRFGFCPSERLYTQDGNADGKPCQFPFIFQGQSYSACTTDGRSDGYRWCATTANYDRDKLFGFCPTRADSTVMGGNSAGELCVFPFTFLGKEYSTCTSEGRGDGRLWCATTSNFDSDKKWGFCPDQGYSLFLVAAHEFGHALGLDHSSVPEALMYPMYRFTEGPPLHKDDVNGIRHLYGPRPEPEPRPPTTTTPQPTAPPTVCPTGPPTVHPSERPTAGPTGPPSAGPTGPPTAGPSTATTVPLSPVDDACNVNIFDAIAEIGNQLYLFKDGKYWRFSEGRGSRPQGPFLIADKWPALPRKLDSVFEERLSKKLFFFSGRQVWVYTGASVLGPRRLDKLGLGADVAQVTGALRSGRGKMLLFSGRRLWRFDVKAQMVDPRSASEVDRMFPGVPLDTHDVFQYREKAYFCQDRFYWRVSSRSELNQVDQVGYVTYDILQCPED
T3 sequence (P08254 100-274 limits assumed): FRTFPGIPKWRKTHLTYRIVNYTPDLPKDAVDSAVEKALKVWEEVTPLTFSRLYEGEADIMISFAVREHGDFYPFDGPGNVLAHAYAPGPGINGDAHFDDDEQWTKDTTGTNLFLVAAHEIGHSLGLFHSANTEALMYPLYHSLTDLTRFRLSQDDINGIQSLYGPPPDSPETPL

CCCCCOc1ccc(-c2ccc(C(=O)C[C@H](CCCc3ccccc3)C(=O)O)cc2)cc1 [Example 86, 4-[4-(4-pentyloxyphenyl)phenyl]-4-oxo-2S-(3-phenylpropyl)butanoic acid]
% Inhibition of Femoral Lesion Surface Area (Femoral Lesion): 0%
IC50 (MMP-2 [1]): 12.5 nM
IC50 (MMP-9 [2]): 442 nM
IC50 (MMP-3): 51 nM

O=C(C[C@H](CCCc1ccccc1)C(=O)O)c1ccc(-c2ccc(OCc3ccccc3)cc2)cc1 [Example 100, 4-[4-(4-benzyloxyphenyl)phenyl]-4-oxo-2S-(3-phenylpropyl)butanoic acid]
% Inhibition of Femoral Lesion Surface Area (Femoral Lesion): 37.8%
IC50 (MMP-2 [1]): 14 nM
IC50 (MMP-9 [2]): 3220 nM
IC50 (MMP-3): 17 nM

O=C(C[C@H](CCCc1ccccc1)C(=O)O)c1ccc(-c2ccc(Cl)cc2)cc1 [Example 116, 4-[4-(4-chlorophenyl)phenyl]-4-oxo-2S-(3-phenylpropyl)butanoic acid]
% Inhibition of Femoral Lesion Surface Area (Femoral Lesion): 0%
IC50 (MMP-2 [1]): 38 nM
IC50 (MMP-9 [2]): 185 nM
IC50 (MMP-3): 137 nM

CCN(CC)C(=O)c1cccc(CC[C@@H](CC(=O)c2ccc(-c3ccc(Cl)cc3)cc2)C(=O)O)c1 [Example 145, 4-[4-(4-chlorophenyl)phenyl]-4-oxo-2S-[2-(3-N,N-diethylcarbamoyl)phenyl]butanoic acid]
% Inhibition of Femoral Lesion Surface Area (Femoral Lesion): 46.4%
IC50 (MMP-2 [1]): 2.1 nM
IC50 (MMP-9 [2]): 19 nM
IC50 (MMP-3): 7.5 nM

O=C(C[C@H](CSc1ccccc1)C(=O)O)c1ccc(-c2ccc(Cl)cc2)cc1 [Example 197, 4-[4-(4-chlorophenyl)phenyl]-4-oxo-2S-(phenylthiomethyl)butanoic acid]
% Inhibition of Femoral Lesion Surface Area (Femoral Lesion): 18%
IC50 (MMP-2 [1]): 22 nM
IC50 (MMP-2 [3]): 26 nM
IC50 (MMP-9 [4]): 197 nM

O=C(C[C@H](CCN1C(=O)c2ccccc2C1=O)C(=O)O)c1ccc(-c2ccc(Cl)cc2)cc1 [Example 268, 4-[4-(4-chlorophenyl)phenyl]-4-oxo-2S-(2-phthalimidoethyl)butanoic acid]
% Inhibition of Femoral Lesion Surface Area (Femoral Lesion): 53%
IC50 (MMP-2 [1]): 0.91 nM
IC50 (MMP-9 [2]): 1.15 nM
IC50 (MMP-3): 5.73 nM
MMP inhibitory activity (in words) (MMP): most active

O=C(O)[C@@H]1[C@@H](C(=O)c2ccc(-c3ccc(Cl)cc3)cc2)CC[C@H]1Sc1ccccc1 [Example 296, (1S,2R,5S)-trans-5-[4-(4-chlorophenyl)phenylcarbonyl]-trans-2-phenylthiocyclopentanecarboxylic acid]
% Inhibition of Femoral Lesion Surface Area (Femoral Lesion): 31%
IC50 (MMP-2 [1]): 6.4 nM
IC50 (MMP-9 [2]): 111 nM
IC50 (MMP-3): 44 nM

COC(=O)c1ccccc1S[C@H]1CC[C@H](C(=O)c2ccc(-c3ccc(Cl)cc3)cc2)[C@H]1C(=O)O [Example 299, (1S,2S,5S)-trans-5-[4-(4-chlorophenyl)phenylcarbonyl]-cis-2-(2-methoxycarbonylphenylthio)cyclopentanecarboxylic acid]
% Inhibition of Femoral Lesion Surface Area (Femoral Lesion): 28%
IC50 (MMP-2 [1]): 52 nM
IC50 (MMP-9 [2]): 531 nM
IC50 (MMP-3): 58 nM

O=C(O)CC(C(=O)c1ccc(-c2ccccc2)cc1)c1ccccc1 (centres unmarked) [LXXVII]
anti-inflammatory activity (literature) (inflammation): inactive

O=C(CC(C(=O)O)c1ccccc1)c1ccc(-c2ccccc2)cc1 (centres unmarked) [XLIV]
anti-inflammatory activity (literature) (inflammation): inactive

CC(CC(=O)c1ccc(-c2ccccc2)cc1)C(=O)O (centres unmarked) [XLVIII]
anti-inflammatory activity (literature) (inflammation): inactive

CNC(=O)[C@H](Cc1ccccc1)NC(=O)[C@H](CC(C)C)[C@H](CSc1cccs1)C(=O)NO [batimastat]
survival of mice bearing human ovarian carcinoma xenografts [5]: prolongs the survival
human colon tumor growth and spread (human colon tumor): inhibits human colon tumor growth and spread
